# Laboratory results from patent US7326534B2, “Detection of gleevec resistant mutations” (Oregon Health and Science University, priority 2001, dated 2008).
# Test system: Src family kinases
# Test: inhibition of tyrosine kinase
# Assay type: biochemical
# Description: […]. […] […]. […] […]
structure (smiles),measurement,value
"Cc1ccc(NC(=O)c2ccc(CN3CCN(C)CC3)cc2)cc1Nc1nccc(-c2cccnc2)n1 [STI571, N-[4-methyl-3-(4-pyridin-3-yl-pyrimidin-2-ylamino)-phenyl]-4-(4-methyl-piperazin-1-ylmethyl)-benzamide]",inhibition of kinase (in words),not
